Laboratory results taken from PMC8125885, “6,6′-Dihydroxythiobinupharidine (DTBN) Purified from Nuphar lutea Leaves Is an Inhibitor of Protein Kinase C Catalytic Activity” (Molecules, 2021).
Where two headings read alike, the source gives them in different places.

Columns and labels:
[1] = target: T1, PKCη (Homo sapiens, UniProt P24723); design: method as in PMID 22078216; conditions: co-crystallized inhibitor at PKCη; cited from earlier work
[2] = target: T2, PKCα (Homo sapiens, UniProt P17252); assay: In vitro kinase assay (32P-MBP phosphorylation by immunoprecipitated HA-tagged PKC); format: biochemical; conditions: MBP substrate, 100 μM cold ATP, 30 min at 32 °C
T2 construct: made in house; host or cells: HEK-293T
Protocol: (§1) To test the effect of DTBN on the activity of PKC isoforms, in vitro kinase assays were performed in a dose–response experiment, and results are presented in Figure 1. At these concentrations, the kinase activities of PKCs were inhibited by DTBN in a dose-dependent manner, having the most profound effect on conventional PKCα and PKCγ as compared to other PKCs tested (Figure 1 and Table 1). […] Immunoblotting was performed with antibodies against HA-tagged different PKCs and against Myelin Basic Protein (MBP) as a loading control.
(§2) Figure 1 DTBN downregulates PKC catalytic activity in a concentration-dependent manner. In vitro kinase assays of indicated PKC isoforms were performed, as described in Materials and Methods, utilizing MBP as a substrate. Before the initiation of the assay, DTBN was added to the samples at several concentrations. Following the termination of the assay, sample proteins were then resolved by SDS-PAGE and developed by autoradiography (a). p^32-MBP and MBP protein band signals were quantified using Image Lab software, and the relative amounts of p^32-MBP/MBP were presented in a line graph (b). Immunoblotting against HA and MBP to detect overexpressed PKC expression, and MBP, respectively, monitor equal loading of samples. Data are representative of two independent experiments. Molecular weight markers (in kDa) are indicated on the left, and arrows mark the positions of the indicated protein bands. IgH, Ig heavy chain.
(§3) PKC kinase assays were performed, as described, using myelin-basic protein (5 μg/100 μL) (MBP, #M1891, Sigma-Aldrich, St. Louis, MO, USA) as a substrate. Whole-cell lysates (75 μg per sample) of HEK-293T cells, each overexpressing different HA-tagged PKCs, were subjected to immunoprecipitation using protein A/G-agarose bead-immobilized anti-HA mAbs (#MMS-101R, BioLegend, San Diego, CA, USA). The immunoprecipitates were washed four times with Triton X-100-containing lysis buffer, and lastly with PKC kinase assay buffer (20 mM HEPES, pH 7.5, 10 mM MgCl2, and 0.1 mM EGTA). The immunoprecipitates were then equally divided to Eppendorf safe-lock tubes, followed by the addition of indicated concentrations of DTBN (μg/mL) and subsequent incubation in a kinase reaction mixture (10 mM ΜgCl2, 20 mM HEPES, 0.1 mM EGTA, 50 μg/mL phosphatidylserine, and 5μCi γ-32P-ATP (PerkinElmer, Waltham, MA, USA), also including 100 μM cold ATP and 1.5 mM CaCl2 (for conventional PKCs), and incubated for 30 min at 32 °C with gentle shaking. Reactions were terminated by the addition of 5× sample buffer and boiling for 5 min, followed by SDS-PAGE (10% acrylamide gels) under reducing conditions. Samples were then transferred to nitrocellulose membranes (Sigma-Aldrich) that were developed by immunoblotting and autoradiography. After the detection of the phosphorylated substrate (^32P-MBP) by autoradiography, the membranes were probed with anti-HA and anti-MBP mAbs (#SMI-99P, BioLegend, San Diego, CA, USA), (loading controls). ^32P-MBP and MBP protein bands were quantified using Image Lab software (5.2.1).

[3] = target: T3, PKCγ (Homo sapiens, UniProt P05129); assay: as above; format: biochemical; conditions: MBP substrate, 100 μM cold ATP, 30 min at 32 °C
T3 construct: made in house; host or cells: HEK-293T
Protocol: as §1, §2, §3

[4] = target: T4, PKCδ (Homo sapiens, UniProt Q05655); assay: as above; format: biochemical; conditions: MBP substrate, 100 μM cold ATP, 30 min at 32 °C
T4 construct: made in house; host or cells: HEK-293T
T4 sequence (Q05655 whole entry): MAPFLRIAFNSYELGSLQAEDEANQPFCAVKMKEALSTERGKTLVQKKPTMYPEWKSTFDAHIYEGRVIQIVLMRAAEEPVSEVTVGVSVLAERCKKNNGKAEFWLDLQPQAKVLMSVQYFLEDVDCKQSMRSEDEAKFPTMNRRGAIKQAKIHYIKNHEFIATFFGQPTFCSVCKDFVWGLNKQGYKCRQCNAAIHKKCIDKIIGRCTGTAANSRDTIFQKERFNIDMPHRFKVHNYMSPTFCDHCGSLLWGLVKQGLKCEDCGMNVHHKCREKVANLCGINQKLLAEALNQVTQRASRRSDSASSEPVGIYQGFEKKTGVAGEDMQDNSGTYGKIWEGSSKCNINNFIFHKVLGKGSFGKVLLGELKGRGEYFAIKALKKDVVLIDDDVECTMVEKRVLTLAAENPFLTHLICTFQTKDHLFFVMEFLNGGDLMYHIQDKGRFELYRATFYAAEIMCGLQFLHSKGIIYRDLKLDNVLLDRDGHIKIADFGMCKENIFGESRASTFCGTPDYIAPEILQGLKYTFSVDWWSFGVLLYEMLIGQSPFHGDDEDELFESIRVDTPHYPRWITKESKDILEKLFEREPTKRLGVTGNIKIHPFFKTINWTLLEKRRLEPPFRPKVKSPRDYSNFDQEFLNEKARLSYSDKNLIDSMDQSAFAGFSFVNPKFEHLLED
Protocol: as §1, §2, §3

[5] = target: T5, PKCε (Homo sapiens, UniProt Q02156); assay: as above; format: biochemical; conditions: MBP substrate, 100 μM cold ATP, 30 min at 32 °C
T5 construct: made in house; host or cells: HEK-293T
T5 sequence (Q02156 1-737): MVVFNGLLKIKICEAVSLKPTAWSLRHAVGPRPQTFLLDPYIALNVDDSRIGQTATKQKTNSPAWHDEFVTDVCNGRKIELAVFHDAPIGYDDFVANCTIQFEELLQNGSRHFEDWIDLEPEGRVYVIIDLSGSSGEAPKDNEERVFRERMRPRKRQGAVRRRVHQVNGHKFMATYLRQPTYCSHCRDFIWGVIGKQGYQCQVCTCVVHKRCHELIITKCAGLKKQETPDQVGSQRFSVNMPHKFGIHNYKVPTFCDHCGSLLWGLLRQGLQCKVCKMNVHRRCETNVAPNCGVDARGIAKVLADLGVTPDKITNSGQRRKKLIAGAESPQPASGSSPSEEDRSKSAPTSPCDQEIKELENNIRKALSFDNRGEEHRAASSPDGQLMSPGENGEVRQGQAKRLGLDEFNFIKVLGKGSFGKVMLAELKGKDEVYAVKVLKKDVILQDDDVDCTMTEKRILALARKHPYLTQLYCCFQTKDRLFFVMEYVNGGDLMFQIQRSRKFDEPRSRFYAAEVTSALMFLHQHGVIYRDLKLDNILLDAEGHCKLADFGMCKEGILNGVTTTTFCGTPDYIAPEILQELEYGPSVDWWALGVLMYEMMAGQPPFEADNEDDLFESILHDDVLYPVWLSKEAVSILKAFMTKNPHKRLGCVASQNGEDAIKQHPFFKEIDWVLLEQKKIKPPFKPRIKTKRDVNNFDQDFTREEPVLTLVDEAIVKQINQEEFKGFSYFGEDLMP
Protocol: as §1, §2, §3

[6] = target: T6, PKCζ (Homo sapiens, UniProt Q05513); assay: as above; format: biochemical; conditions: MBP substrate, 100 μM cold ATP, 30 min at 32 °C
T6 construct: made in house; host or cells: HEK-293T
T6 sequence (Q05513 1-592): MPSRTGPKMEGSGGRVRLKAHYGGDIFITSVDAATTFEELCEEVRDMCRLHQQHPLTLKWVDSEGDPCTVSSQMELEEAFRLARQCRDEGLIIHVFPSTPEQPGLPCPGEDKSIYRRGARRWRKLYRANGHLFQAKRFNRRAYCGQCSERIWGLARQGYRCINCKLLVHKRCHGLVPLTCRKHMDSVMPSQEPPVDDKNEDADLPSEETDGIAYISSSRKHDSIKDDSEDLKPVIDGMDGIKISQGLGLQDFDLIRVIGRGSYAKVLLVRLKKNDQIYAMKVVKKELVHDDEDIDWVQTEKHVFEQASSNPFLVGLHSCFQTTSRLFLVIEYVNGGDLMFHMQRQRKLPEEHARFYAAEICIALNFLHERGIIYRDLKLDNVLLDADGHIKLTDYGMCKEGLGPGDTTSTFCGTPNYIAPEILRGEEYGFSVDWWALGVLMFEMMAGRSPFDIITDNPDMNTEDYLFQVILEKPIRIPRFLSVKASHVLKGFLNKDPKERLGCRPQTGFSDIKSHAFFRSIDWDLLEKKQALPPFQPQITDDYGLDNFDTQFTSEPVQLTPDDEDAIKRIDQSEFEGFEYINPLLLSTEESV
Protocol: as §1, §2, §3

[7] = target: T1, PKCη; assay: as above; format: biochemical; conditions: MBP substrate, 100 μM cold ATP, 30 min at 32 °C
Protocol: as §1, §2, §3

[8] = read-out: IC50 Values (μg/mL) (converted)

T1 sequence (P24723 whole entry): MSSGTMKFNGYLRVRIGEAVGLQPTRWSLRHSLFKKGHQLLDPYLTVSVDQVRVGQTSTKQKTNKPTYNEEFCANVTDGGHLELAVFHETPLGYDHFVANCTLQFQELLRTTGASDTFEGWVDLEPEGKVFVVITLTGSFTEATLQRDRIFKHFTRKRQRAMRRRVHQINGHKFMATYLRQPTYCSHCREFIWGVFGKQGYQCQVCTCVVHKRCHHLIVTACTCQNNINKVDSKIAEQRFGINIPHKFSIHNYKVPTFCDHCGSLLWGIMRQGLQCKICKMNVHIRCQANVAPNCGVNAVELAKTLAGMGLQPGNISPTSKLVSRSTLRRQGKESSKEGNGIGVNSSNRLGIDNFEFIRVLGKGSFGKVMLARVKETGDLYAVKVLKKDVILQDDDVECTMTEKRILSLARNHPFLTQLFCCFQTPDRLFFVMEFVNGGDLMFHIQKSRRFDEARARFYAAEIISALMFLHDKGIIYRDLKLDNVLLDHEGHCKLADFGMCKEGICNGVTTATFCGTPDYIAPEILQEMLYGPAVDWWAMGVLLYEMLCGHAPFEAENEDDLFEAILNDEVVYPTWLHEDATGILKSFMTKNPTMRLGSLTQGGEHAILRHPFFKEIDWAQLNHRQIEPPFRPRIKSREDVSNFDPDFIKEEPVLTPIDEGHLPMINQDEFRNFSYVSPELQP

| SMILES | IC50 [1] [µM] | IC50 ([2]; read-out: IC50 Values) [µM] | IC50 [2, 8] [µM] | IC50 ([3]; read-out: IC50 Values) [µM] | IC50 [3, 8] [µM] | IC50 ([4]; read-out: IC50 Values) [µM] | IC50 ([4]; read-out: IC50 Values (μg/mL)) [µM] | IC50 ([5]; read-out: IC50 Values) [µM] | IC50 [5, 8] [µM] | IC50 ([6]; read-out: IC50 Values) [µM] | IC50 [6, 8] [µM] | IC50 ([7]; read-out: IC50 Values) [µM] | IC50 ([7]; read-out: IC50 Values (μg/mL)) [µM] |
| --- | --- | --- | --- | --- | --- | --- | --- | --- | --- | --- | --- | --- | --- |
| c1cc2cnccc2cn1 [2,6-Naphthyridine] | 0.009 | – | – | – | – | – | – | – | – | – | – | – | – |
| CC1CCC(c2ccoc2)N2C1CCC1(CSC3(CCC4C(C)CCC(c5ccoc5)N4C3O)C1)C2O (stereo not shown) [DTBN, 6,6′-dihydroxythiobinupharidine] | – | 0.174 | 0.175 | 0.168 | 0.169 | > 19 | > 19 | 14.2 | 14.2 | 18.6 | 18.6 | > 19 | > 19 |
